Legend:
Settings in all cases: main component drawn
[1] = tested on: S. aureus Newman; assay: fitness (endpoint OD595 vs no drug) (fraction); higher = more growth
Summary of the method: (§1)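 Each well of a 384-well plate received 30 µl of culture at OD595 0.01, or 55 µl for S. pneumoniae. TSB, LB Lennox or CY served as media at 37 °C. OD595 was taken every 30 min for 14 h and corrected by subtracting the first reading. Fitness is the optical density at stationary-phase entry divided by the robust mean of no-drug controls, capped at 1.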

[2] = tested on: B. subtilis 168; assay: Bliss interaction score (quartile over a dose matrix) (fitness difference); higher = more antagonism (negative = synergy)
Summary of the method: (§2)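 Fitness here means normalised growth, inferred for single drugs from the combination data. Growth was OD595 at entry into stationary phase, divided by the plate's robust no-drug mean and capped at 1. The Bliss score is observed minus expected fitness, with the expectation being the product, and its quartiles span technical, biological and donor/recipient replicates.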

[3] = tested on: S. aureus DSM 20231; assay: as above
Summary of the method: as §2

[4] = tested on: S. aureus Newman; assay: as above
Summary of the method: as §2

[5] = tested on: S. pneumoniae D39V; assay: as above
Summary of the method: as §2

[6] = tested on: B. subtilis 168; assay: fitness (endpoint OD595 vs no drug) (fraction); higher = more growth
Summary of the method: as §1
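Wherever Bliss interaction score (quartile over a dose matrix) is given: first quartile when negative (synergy) and third quartile when positive (antagonism).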

CC[C@H](C)[C@H](N)C1=N[C@H](C(=O)N[C@@H](CC(C)C)C(=O)N[C@H](CCC(=O)O)C(=O)N[C@H](C(=O)N[C@H]2CCCCNC(=O)[C@H](CC(N)=O)NC(=O)[C@@H](CC(=O)O)NC(=O)[C@H](Cc3cnc[nH]3)NC(=O)[C@@H](Cc3ccccc3)NC(=O)[C@H]([C@@H](C)CC)NC(=O)[C@@H](CCCN)NC2=O)[C@@H](C)CC)CS1 [Bacitracin] + C/C(=C\C(=O)OCCCCCCCCC(=O)O)C[C@@H]1OC[C@H](C[C@@H]2O[C@H]2[C@@H](C)[C@H](C)O)[C@@H](O)[C@H]1O [Pseudomonic acid]
fitness, [1], one replicate
Settings | first compound 18.75 µg/mL | first compound 37.5 µg/mL | first compound 75 µg/mL
partner 0.0313 µg/mL | 0.0438 | 0.029 | 0.0257
partner 0.0625 µg/mL | 0.0196 | 0.0219 | 0.0077
partner 0.125 µg/mL | 0.0416 | 0.0193 | 0.0115

Settings | Bliss interaction score
[2] | -0.0784
[3] | 0.0189
[4] | 0.0307
[5] | -0.0953

CC[C@H](C)[C@H](N)C1=N[C@H](C(=O)N[C@@H](CC(C)C)C(=O)N[C@H](CCC(=O)O)C(=O)N[C@H](C(=O)N[C@H]2CCCCNC(=O)[C@H](CC(N)=O)NC(=O)[C@@H](CC(=O)O)NC(=O)[C@H](Cc3cnc[nH]3)NC(=O)[C@@H](Cc3ccccc3)NC(=O)[C@H]([C@@H](C)CC)NC(=O)[C@@H](CCCN)NC2=O)[C@@H](C)CC)CS1 [Bacitracin] + CC1=C(C(=O)O)N2C(=O)[C@@H](NC(=O)[C@H](N)c3ccccc3)[C@H]2SC1 [Cephalexin]
fitness
Settings | partner 0.125 µg/mL | partner 0.25 µg/mL | partner 0.5 µg/mL | partner 1 µg/mL
[1], first compound 18.75 µg/mL | – | 0.798 | 0.785 | 0.791
[1], first compound 75 µg/mL | – | 0.0499 | 0.0405 | 0.045
[6], first compound 37.5 µg/mL | 0.922 | 0.824 | 0.838 | –
[6], first compound 75 µg/mL | 0.884 | 0.869 | 0.904 | –
[6], first compound 150 µg/mL | 0.72 | – | – | –

[6], partner 1 µg/mL, one replicate
Settings | fitness
first compound 37.5 µg/mL | 0.874
first compound 75 µg/mL | 0.886
first compound 150 µg/mL | 0.53

Settings | Bliss interaction score
[2] | 0.0854
[3] | 0.0487
[4] | 0.129
[5] | -0.0987

CC[C@H](C)[C@H](N)C1=N[C@H](C(=O)N[C@@H](CC(C)C)C(=O)N[C@H](CCC(=O)O)C(=O)N[C@H](C(=O)N[C@H]2CCCCNC(=O)[C@H](CC(N)=O)NC(=O)[C@@H](CC(=O)O)NC(=O)[C@H](Cc3cnc[nH]3)NC(=O)[C@@H](Cc3ccccc3)NC(=O)[C@H]([C@@H](C)CC)NC(=O)[C@@H](CCCN)NC2=O)[C@@H](C)CC)CS1 [Bacitracin] + CCCCCCCCCC(=O)N[C@@H]1[C@H]([C@@H]([C@H](O[C@H]1OC2=C3C=C4C=C2OC5=C(C=C(C=C5)[C@H]([C@H]6C(=O)N[C@@H](C7=C(C(=CC(=C7)O)OC8[C@H]([C@H]([C@@H]([C@H](O8)CO)O)O)O)C9=C(C=CC(=C9)[C@H](C(=O)N6)NC(=O)[C@@H]4NC(=O)[C@@H]1C2=CC(=CC(=C2)OC2=C(C=CC(=C2)[C@H](C(=O)N[C@H](CC2=CC(=C(O3)C=C2)Cl)C(=O)N1)N)O)O)O)C(=O)O)O[C@H]1[C@@H]([C@H]([C@@H]([C@H](O1)CO)O)O)NC(=O)C)Cl)CO)O)O [Teicoplanin]
fitness, [1]
Settings | first compound 18.75 µg/mL | first compound 37.5 µg/mL | first compound 75 µg/mL
partner 0.1562 µg/mL | 0.777 | 0.249 | 0.0017
partner 0.3125 µg/mL | 0.77 | 0.202 | 0.0042
partner 0.625 µg/mL | 0.683 | 0.206 | 0

fitness, [1], one replicate
Settings | first compound 18.75 µg/mL | first compound 37.5 µg/mL | first compound 75 µg/mL
partner 0.62 µg/mL | 0.543 | 0.0346 | 0.0093
partner 1.24 µg/mL | 0.424 | 0.0167 | 0.0003
partner 2.48 µg/mL | 0.0859 | 0.0387 | 0.0349

Settings | Bliss interaction score
[2] | -0.119
[3] | -0.0716
[4] | 0.0565
[5] | -0.0678

CC[C@H](C)[C@H](N)C1=N[C@H](C(=O)N[C@@H](CC(C)C)C(=O)N[C@H](CCC(=O)O)C(=O)N[C@H](C(=O)N[C@H]2CCCCNC(=O)[C@H](CC(N)=O)NC(=O)[C@@H](CC(=O)O)NC(=O)[C@H](Cc3cnc[nH]3)NC(=O)[C@@H](Cc3ccccc3)NC(=O)[C@H]([C@@H](C)CC)NC(=O)[C@@H](CCCN)NC2=O)[C@@H](C)CC)CS1 [Bacitracin] + CN[C@H](CC(C)C)C(=O)N[C@H]1C(=O)N[C@@H](CC(N)=O)C(=O)N[C@H]2C(=O)N[C@H]3C(=O)N[C@H](C(=O)N[C@H](C(=O)O)c4cc(O)cc(O)c4-c4cc3ccc4O)[C@H](O)c3ccc(c(Cl)c3)Oc3cc2cc(c3O[C@@H]2O[C@H](CO)[C@@H](O)[C@H](O)[C@H]2O[C@H]2C[C@](C)(N)[C@H](O)[C@H](C)O2)Oc2ccc(cc2Cl)[C@H]1O [Vancomycin]
fitness, [1]
Settings | first compound 18.75 µg/mL | first compound 37.5 µg/mL | first compound 75 µg/mL
partner 0.1875 µg/mL | 0.735 | 0.183 | 0.0338
partner 0.375 µg/mL | 0.723 | 0.135 | 0.0309
partner 0.75 µg/mL | 0.712 | 0.159 | 0.0262

Settings | Bliss interaction score
[2] | 0.0708
[3] | 0.0843
[4] | -0.0422
[5] | -0.0651

CC[C@H](C)[C@H](N)C1=N[C@H](C(=O)N[C@@H](CC(C)C)C(=O)N[C@H](CCC(=O)O)C(=O)N[C@H](C(=O)N[C@H]2CCCCNC(=O)[C@H](CC(N)=O)NC(=O)[C@@H](CC(=O)O)NC(=O)[C@H](Cc3cnc[nH]3)NC(=O)[C@@H](Cc3ccccc3)NC(=O)[C@H]([C@@H](C)CC)NC(=O)[C@@H](CCCN)NC2=O)[C@@H](C)CC)CS1 [Bacitracin] + CO/N=C(\C(=O)N[C@@H]1C(=O)N2C(C(=O)[O-])=C(C[N+]3(C)CCCC3)CS[C@H]12)c1csc(N)n1 [Cefepime]
fitness, [1]
Settings | first compound 18.75 µg/mL | first compound 37.5 µg/mL | first compound 75 µg/mL
partner 0.125 µg/mL | 0.699 | – | 0.0274
partner 0.25 µg/mL | 0.634 | – | 0.0298
partner 0.5 µg/mL | – | 0.0986 | 0.0408

Settings | Bliss interaction score
[2] | -0.124
[3] | 0.0889
[4] | -0.0863
[5] | -0.144
